In PubChem BioAssay AID330 (DTP/NCI, 2004):
Values joined by “and” are separate entries in the source; they are usually repeats but may differ in a detail not shown here. Equal entries are not always repeated. Inconclusive results and toxic doses are left out. Rule for the calls: active = survival T/C of 150% or more; inactive = T/C below 125% in these data.

System: P388 leukemia ip, CD2F1 mice, survival T/C
Test: NCI In Vivo Anticancer Drug Screen. Data for tumor model P388 Leukemia (intraperitoneal) in CD2F1 (CDF1) mice
Conditions: endpoint: median survival time, higher = longer survival
Method in brief: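 Mice carrying the transplanted tumor received test compound or vehicle. Survival was recorded in each group, and the value is the treated-group measurement divided by that of the vehicle-treated control group.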

[1] = dose: 100.0 mg/kg/injection, schedule: Q04DX003 (ip), vehicle: Klucel (hydroxypropylcellulose) (HPC)
[2] = dose: 200.0 mg/kg/injection, schedule: Q04DX003 (ip), vehicle: Klucel (hydroxypropylcellulose) (HPC)
[3] = dose: 400.0 mg/kg/injection, schedule: Q04DX003 (ip), vehicle: Klucel (hydroxypropylcellulose) (HPC)
[4] = dose: 100.0 mg/kg/injection, schedule: Q01DX001 (ip), vehicle: saline with Tween-80
[5] = dose: 200.0 mg/kg/injection, schedule: Q01DX001 (ip), vehicle: saline with Tween-80
[6] = dose: 400.0 mg/kg/injection, schedule: Q01DX001 (ip), vehicle: saline with Tween-80
[7] = dose: 50.0 mg/kg/injection, schedule: Q01DX005 (ip), vehicle: saline with Tween-80
[8] = dose: 100.0 mg/kg/injection, schedule: Q01DX005 (ip), vehicle: saline with Tween-80
[9] = dose: 200.0 mg/kg/injection, schedule: Q01DX005 (ip), vehicle: saline with Tween-80
[10] = dose: 50.0 mg/kg/injection, schedule: Q01DX009 (ip), vehicle: saline with Tween-80
[11] = dose: 100.0 mg/kg/injection, schedule: Q01DX009 (ip), vehicle: saline with Tween-80
[12] = dose: 200.0 mg/kg/injection, schedule: Q01DX009 (ip), vehicle: saline with Tween-80
[13] = dose: 100.0 mg/kg/injection, schedule: Q04DX003 (ip), vehicle: saline with Tween-80
[14] = dose: 200.0 mg/kg/injection, schedule: Q04DX003 (ip), vehicle: saline with Tween-80
[15] = dose: 60.0 mg/kg/injection, schedule: Q01DX005 (ip), vehicle: saline with Tween-80
[16] = dose: 120.0 mg/kg/injection, schedule: Q01DX005 (ip), vehicle: saline with Tween-80
[17] = dose: 240.0 mg/kg/injection, schedule: Q01DX005 (ip), vehicle: saline with Tween-80

Measured: T/C

Cn1cnc2cc(NCc3ccccc3)c([N+](=O)[O-])cc2c1=O
inactive: [1] 100 % of control | [2] 106 % of control | [3] 101 % of control

NC(=O)C(=Nc1ccccc1)Nc1ccccc1
inactive: dose: 100.0 mg/kg/injection, schedule: Q01DX001 (ip), vehicle: saline 115 % of control | dose: 200.0 mg/kg/injection, schedule: Q01DX001 (ip), vehicle: saline 107 % of control | dose: 400.0 mg/kg/injection, schedule: Q01DX001 (ip), vehicle: saline 104 % of control

CC(=O)OCC1OC(n2cnc3c2N=CN2C(CCl)=CC(=O)NC32)C(OC(C)=O)C1OC(C)=O (stereo not given)
inactive: [4] 103 % of control | [5] 103 % of control | [6] 110 % of control

COc1cccc2c1C(=O)c1c(O)c3c(c(O)c1C2=O)CC(O)(C(C)=O)CC3OC1CC(NC2CCCCC2)C(O)C(C)O1 (stereo not given)
inactive: dose: 6.25 mg/kg/injection, schedule: Q04DX003 (ip), vehicle: distilled water + Tween-80 100 % of control | dose: 12.5 mg/kg/injection, schedule: Q04DX003 (ip), vehicle: distilled water + Tween-80 104 % of control | dose: 25.0 mg/kg/injection, schedule: Q04DX003 (ip), vehicle: distilled water + Tween-80 102 % of control | dose: 50.0 mg/kg/injection, schedule: Q04DX003 (ip), vehicle: distilled water + Tween-80 102 % of control | dose: 100.0 mg/kg/injection, schedule: Q04DX003 (ip), vehicle: distilled water + Tween-80 104 % of control | dose: 200.0 mg/kg/injection, schedule: Q04DX003 (ip), vehicle: distilled water + Tween-80 108 % of control

CCN(CCO)CC(O)Cn1cnc2ncnc(N)c21 (stereo not given) (tested in a mixture with another compound)
inactive: dose: 60.0 mg/kg/injection, schedule: Q01DX005 (ip), vehicle: Klucel (hydroxypropylcellulose) (HPC) 97 % of control | dose: 120.0 mg/kg/injection, schedule: Q01DX005 (ip), vehicle: Klucel (hydroxypropylcellulose) (HPC) 94 % of control | dose: 240.0 mg/kg/injection, schedule: Q01DX005 (ip), vehicle: Klucel (hydroxypropylcellulose) (HPC) 95 % of control

O=C(O)c1ccccc1NCc1ccco1
inactive: [7] 91 % of control | [8] 96 % of control | [9] 89 % of control

CC1SC(C)(C)N(C=O)C1C(=O)O (stereo not given)
inactive: [10] 99 % of control and 100 % of control | [11] 101 % of control and 91 % of control | [12] 106 % of control and 94 % of control

CN(C)c1ccc(/C=C/c2nc3ccccc3s2)cc1
inactive: dose: 25.0 mg/kg/injection, schedule: Q01DX009 (ip), vehicle: Klucel (hydroxypropylcellulose) (HPC) 108 % of control | dose: 50.0 mg/kg/injection, schedule: Q01DX009 (ip), vehicle: Klucel (hydroxypropylcellulose) (HPC) 99 % of control | dose: 100.0 mg/kg/injection, schedule: Q01DX009 (ip), vehicle: Klucel (hydroxypropylcellulose) (HPC) 99 % of control | dose: 200.0 mg/kg/injection, schedule: Q01DX009 (ip), vehicle: Klucel (hydroxypropylcellulose) (HPC) 98 % of control

BrC=C1c2ccccc2-c2ccccc21
inactive: [1] 100 % of control | [2] 91 % of control | [3] 102 % of control

Cn1cc2c(c1-c1ccccc1)[n+](=O)c1ccccc1n2[O-]
inactive: [7] 94 % of control | [8] 91 % of control | [9] 95 % of control

Clc1ccc2c(c1)nc(-c1ccccn1)n2CCc1ccccn1
inactive: dose: 25.0 mg/kg/injection, schedule: Q01DX005 (ip), vehicle: Klucel (hydroxypropylcellulose) (HPC) 99 % of control | dose: 50.0 mg/kg/injection, schedule: Q01DX005 (ip), vehicle: Klucel (hydroxypropylcellulose) (HPC) 104 % of control | dose: 100.0 mg/kg/injection, schedule: Q01DX005 (ip), vehicle: Klucel (hydroxypropylcellulose) (HPC) 101 % of control | dose: 200.0 mg/kg/injection, schedule: Q01DX005 (ip), vehicle: Klucel (hydroxypropylcellulose) (HPC) 93 % of control

CP1(=S)CC[C@H]2C3=C(CC[C@@H]21)CC(=O)CC3 (stereo not given in full)
inactive: dose: 50.0 mg/kg/injection, schedule: Q01DX005 (ip), vehicle: saline + Tween-80 + alcohol 106 % of control | dose: 100.0 mg/kg/injection, schedule: Q01DX005 (ip), vehicle: saline + Tween-80 + alcohol 103 % of control | dose: 200.0 mg/kg/injection, schedule: Q01DX005 (ip), vehicle: saline + Tween-80 + alcohol 97 % of control

C[S+](C)CCCNC(=O)c1csc(-c2csc(-c3cscn3)n2)n1
inactive: dose: 6.25 mg/kg/injection, schedule: Q01DX005 (ip), vehicle: saline 104 % of control | dose: 12.5 mg/kg/injection, schedule: Q01DX005 (ip), vehicle: saline 96 % of control

Cc1c(CCNC=O)cc(C)c2c3c(oc12)CCCC3
inactive: [10] 91 % of control | [11] 91 % of control | [12] 94 % of control | dose: 400.0 mg/kg/injection, schedule: Q01DX009 (ip), vehicle: saline with Tween-80 91 % of control

O=c1[nH]c(=O)c2nc(-c3ccc(Cl)cc3)cnc2[nH]1
inactive: [13] 94 % of control | [14] 102 % of control | dose: 400.0 mg/kg/injection, schedule: Q04DX003 (ip), vehicle: saline with Tween-80 101 % of control

NC(=O)CSc1ncnc2nc[nH]c12
inactive: dose: 50.0 mg/kg/injection, schedule: Q01DX009 (ip), vehicle: saline 97 % of control | dose: 100.0 mg/kg/injection, schedule: Q01DX009 (ip), vehicle: saline 100 % of control | dose: 200.0 mg/kg/injection, schedule: Q01DX009 (ip), vehicle: saline 102 % of control

O=C(O)c1cccc(C(=O)O)c1Sc1c(C(=O)O)cccc1C(=O)O
inactive: [4] 99 % of control | [5] 95 % of control | [6] 91 % of control

O=C(CC(O)(C(F)(F)F)C(F)(F)F)c1ccc(Cl)cc1
inactive: dose: 50.0 mg/kg/injection, schedule: Q04DX003 (ip), vehicle: saline with Tween-80 104 % of control | [13] 100 % of control | [14] 104 % of control

CC(=O)OC1CC(O)CC2=CCC3C4CCC(C(C)(O)C(O)CC5COC(=O)C5C)C4(C)CCC3C21C (stereo not given)
inactive: dose: 4.0 mg/kg/injection, schedule: Q01DX005 (ip), vehicle: distilled water + Tween-80 96 % of control | dose: 8.0 mg/kg/injection, schedule: Q01DX005 (ip), vehicle: distilled water + Tween-80 95 % of control | dose: 16.0 mg/kg/injection, schedule: Q01DX005 (ip), vehicle: distilled water + Tween-80 96 % of control | dose: 32.0 mg/kg/injection, schedule: Q01DX005 (ip), vehicle: distilled water + Tween-80 91 % of control and 97 % of control | dose: 64.0 mg/kg/injection, schedule: Q01DX005 (ip), vehicle: distilled water + Tween-80 87 % of control and 94 % of control

NC(N)=N/N=C/c1nccc2ccccc12
inactive: dose: 25.0 mg/kg/injection, schedule: Q01DX005 (ip), vehicle: saline with Tween-80 99 % of control and 103 % of control | [7] 98 % of control and 99 % of control and 102 % of control | [8] 105 % of control and 120 % of control

O=C(O)c1ccccc1NC(c1ccccc1)c1ccc2cccnc2c1O (stereo not given)
inactive: [1] 114 % of control and 115 % of control | [2] 113 % of control and 119 % of control

CCOC(=O)C(C#N)C(=N)C1CC(C)OC1=O (stereo not given)
inactive: [15] 100 % of control | [16] 100 % of control | [17] 98 % of control

O=c1c2cncnc2sc2nc3ccccc3n12
inactive: [15] 95 % of control | [16] 94 % of control | [17] 88 % of control
